Assay results as given in PubChem BioAssay AID652227 (The Scripps Research Institute Molecular Screening Center, 2013).

Target: Serine/threonine-protein phosphatase PP1-alpha catalytic subunit (Homo sapiens) (UniProt P62136)
Experiment: PP1 inhibition of glycogen phosphorylase dephosphorylation, late-stage follow-up, orthogonal assay for PP1 inhibitor probe project, biochemical, radiolabel, dose response, powder samples, set 2 (AID 652227)
Settings: purified PP1alpha, 32P/33P-phosphorylase dephosphorylation, scintillation

Serine/threonine-protein phosphatase PP1-alpha catalytic subunit (Homo sapiens), sequence (P62136 whole entry, looked up): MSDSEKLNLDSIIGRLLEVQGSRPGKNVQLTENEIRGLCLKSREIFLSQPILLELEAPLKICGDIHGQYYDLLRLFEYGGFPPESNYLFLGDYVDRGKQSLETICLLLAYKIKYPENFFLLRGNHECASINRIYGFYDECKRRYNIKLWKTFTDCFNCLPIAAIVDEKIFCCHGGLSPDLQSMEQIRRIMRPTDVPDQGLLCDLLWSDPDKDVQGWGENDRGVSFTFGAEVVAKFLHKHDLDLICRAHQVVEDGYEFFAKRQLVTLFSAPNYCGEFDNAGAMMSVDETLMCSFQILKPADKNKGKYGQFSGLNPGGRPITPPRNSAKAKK

N#Cc1c(-c2ccc(Cl)cc2)cc(-c2cccs2)nc1SCC(=O)O
IC50: 21.9 µM

CCn1c2ccccc2c2cc(NC(=O)COC(=O)c3ccc(NC(=O)CC#N)cc3)ccc21
IC50: 38 µM

COc1ccc(NC(=O)C2C3CCC(O3)C2C(=O)O)c(OC)c1 (stereo not given)
IC50: 18.9 µM

CCOC(=O)c1sc2nc3c(SCC(=O)O)cc(C(=O)c4cc(F)ccc4O)cn3c(=O)c2c1C
IC50: 8.54 µM

CN1CCN(C(c2ccccn2)c2cc(Cl)c3cccnc3c2O)CC1 (stereo not given)
IC50: 4.89 µM
